According to patent US20240226115A1, “AXL INHIBITOR COMPOUNDS” (ARCUS BIOSCIENCES, INC., priority 2021, published 2024):

Biological target: T1, Axl (Homo sapiens, UniProt P30530)
T1 sequence (P30530 26-894): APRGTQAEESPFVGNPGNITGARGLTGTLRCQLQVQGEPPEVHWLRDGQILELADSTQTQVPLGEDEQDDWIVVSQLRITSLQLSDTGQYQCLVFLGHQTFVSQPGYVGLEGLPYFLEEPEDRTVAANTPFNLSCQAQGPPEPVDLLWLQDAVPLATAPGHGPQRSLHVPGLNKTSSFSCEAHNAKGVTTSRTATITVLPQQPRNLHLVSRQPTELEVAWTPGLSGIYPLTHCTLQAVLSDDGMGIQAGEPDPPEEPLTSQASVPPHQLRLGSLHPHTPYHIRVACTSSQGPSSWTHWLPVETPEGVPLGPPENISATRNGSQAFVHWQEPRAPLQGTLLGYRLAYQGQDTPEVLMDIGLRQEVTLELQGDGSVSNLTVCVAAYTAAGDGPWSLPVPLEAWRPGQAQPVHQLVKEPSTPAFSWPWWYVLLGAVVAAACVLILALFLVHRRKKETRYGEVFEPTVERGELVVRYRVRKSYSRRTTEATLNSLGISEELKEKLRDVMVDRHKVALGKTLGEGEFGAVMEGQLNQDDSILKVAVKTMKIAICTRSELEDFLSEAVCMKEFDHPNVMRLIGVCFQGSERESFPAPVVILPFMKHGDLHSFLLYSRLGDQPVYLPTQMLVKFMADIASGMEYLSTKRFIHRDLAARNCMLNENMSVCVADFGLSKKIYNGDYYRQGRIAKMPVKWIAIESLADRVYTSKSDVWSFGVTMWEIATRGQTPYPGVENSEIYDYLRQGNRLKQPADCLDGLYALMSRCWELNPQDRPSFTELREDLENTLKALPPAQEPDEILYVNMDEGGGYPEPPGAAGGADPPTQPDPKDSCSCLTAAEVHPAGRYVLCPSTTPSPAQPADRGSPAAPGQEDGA
Test: HTRF KinEASE-TK biochemical potency, AXL
Design: purchased Invitrogen
Conditions: 5 nM AXL, 700 μM ATP
Outline: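 Enzyme preincubated with compound 1 h at RT; final 5 nM AXL or 1 nM TYRO3/MER, 800 nM TK substrate-biotin, 700 μM ATP, HEPES pH 7.4, MgCl2, 1% DMSO, 2 h at RT. HTRF 665/620 ratio read after streptavidin-XL665/cryptate antibody detection; percent activity relative to DMSO and pre-stopped controls.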

IC50: < 100 nM
SMILES: C[C@@H]1CCCN1C1CCc2ccc(-c3cnc4[nH]nc(-c5ccc6c(c5)OCCNS6(=O)=O)c4c3)cc2CC1 (stereo partly drawn) [Example 66, 7-(5-{7-[(2R)-2-Methylpyrrolidin-1-yl]-6,7,8,9-tetrahydro-5H-benzo[7]annulen-2-yl}-1H-pyrazolo[3,4-b]pyridin-3-yl)-3,4-dihydro-2H-5,12,2-benzoxathiazepine-1,1-dione]
